# Tested on: bicistronic HCV replicon (replicon RNA, GenBank Accession No. AJ242654)
# Assay: HCV Replicon Assay
# Format: cell-based
# Details: Hepatitis C virus, 72 h, read-out: Replicon IC50
row,SMILES,IC50 [nM]
1,"C[C@H](NS(=O)(=O)c1ccc(-c2c(C#N)c3ccc(CC(F)F)cc3n2C2CCCC2)nc1)C1CC1 [compound 594, 6-[3-cyano-1-cyclopentyl-6-(2,2-difluoroethyl)-1H-indol-2-yl]-N-[(1S)-1-cyclopropylethyl]pyridine-3-sulfonamide]",< 500
2,"C[C@H](NS(=O)(=O)c1ccc(-c2c(C#N)c3ccc(C4CC4)cc3n2C2CCCC2)nc1)C1CC1 [compound 433, 6-(3-cyano-1-cyclopentyl-6-cyclopropyl-1H-indol-2-yl)-N-[(1S)-1-cyclopropylethyl]pyridine-3-sulfonamide]",< 500
3,"N#Cc1c(-c2ccc(S(=O)(=O)NC(CF)CF)cn2)n(C2CCC2)c2cc(CF)ccc12 [compound 318, 6-[3-cyano-1-cyclobutyl-6-(fluoromethyl)-1H-indol-2-yl]-N-(1,3-difluoropropan-2-yl)pyridine-3-sulfonamide]",< 500
4,"COC(=O)c1cnc(-n2c(-c3ccc(S(=O)(=O)N[C@@H](C)C(F)(F)F)cn3)c(C#N)c3cc(F)c(C)cc32)s1 [compound 985, methyl 2-[3-cyano-5-fluoro-6-methyl-2-(5-{[(2S)-1,1,1-trifluoropropan-2-yl]sulfamoyl}pyridin-2-yl)-1H-indol-1-yl]-1,3-thiazole-5-carboxylate]",< 500
5,"Cc1nc(NS(=O)(=O)C(C)(C)C)ccc1-c1c(C(=O)O)c2cc(F)c(OC(F)F)cc2n1[C@H](C)C1CC1 [compound 1094, 2-{6-[(tert-butylsulfonyl)amino]-2-methylpyridin-3-yl}-1-[(1R)-1-cyclopropylethyl]-6-(difluoromethoxy)-5-fluoro-1H-indole-3-carboxylic acid]",< 500
6,"COC(=O)c1c(-c2ccc(S(=O)(=O)NC(C)(C)C)cn2)n(C2CCCC2)c2cc(C)c(F)cc12 [compound 755, methyl 2-[5-(tert-butylsulfamoyl)pyridin-2-yl]-1-cyclopentyl-5-fluoro-6-methyl-1H-indole-3-carboxylate]",< 500
7,"CC(C)n1c(-c2ncc(S(=O)(=O)N[C@@H](C)C(F)(F)F)cn2)c(C#N)c2cc(Cl)ccc21 [compound 420, 2-[5-chloro-3-cyano-1-(propan-2-yl)-1H-indol-2-yl]-N-[(2S)-1,1,1-trifluoropropan-2-yl]pyrimidine-5-sulfonamide]",500 to 2000
8,"C[C@H](NS(=O)(=O)c1ccc(-c2c(C#N)c3cc(F)ccc3n2C2CCCC2)nc1)C(F)(F)F [compound 435, 6-(3-cyano-1-cyclopentyl-5-fluoro-1H-indol-2-yl)-N-[(2S)-1,1,1-trifluoropropan-2-yl]pyridine-3-sulfonamide]",< 500
9,"CNC(=O)c1c(-c2ccc(S(=O)(=O)N[C@@H](C)C(F)(F)F)cn2)n(C2CCC2)c2cc(C)c(F)cc12 [compound 801, 1-cyclobutyl-5-fluoro-N,6-dimethyl-2-(5-{[(2S)-1,1,1-trifluoropropan-2-yl]sulfamoyl}pyridin-2-yl)-1H-indole-3-carboxamide]",< 500
10,"C[C@H](C1CC1)n1c(-c2ccc(NS(=O)(=O)C(C)(C)C)nc2)c(C(=O)O)c2cc(F)c(OC(F)F)cc21 [compound 1084, 2-{6-[(tert-butylsulfonyl)amino]pyridin-3-yl}-1-[(1R)-1-cyclopropylethyl]-6-(difluoromethoxy)-5-fluoro-1H-indole-3-carboxylic acid]",< 500
11,"CC(C)(C)NS(=O)(=O)c1ccc(-c2c(C#N)c3cc(F)c(OC(F)F)cc3n2C2CCC2)nc1 [compound 720, N-tert-butyl-6-[3-cyano-1-cyclobutyl-6-(difluoromethoxy)-5-fluoro-1H-indol-2-yl]pyridine-3-sulfonamide]",< 500
12,"C=CCc1cc2c(cc1F)c(C#N)c(-c1ccc(S(=O)(=O)N[C@@H](C)C(F)(F)F)cn1)n2-c1ncccn1 [compound 967, 6-[3-cyano-5-fluoro-6-(prop-2-en-1-yl)-1-(pyrimidin-2-yl)-1H-indol-2-yl]-N-[(2S)-1,1,1-trifluoropropan-2-yl]pyridine-3-sulfonamide]",< 500

# — patent US8735414B2 (priority 2009, dated 2014)
